Results from patent publication US20240382499A1, “INDUCERS OF SENESCENCE, IN COMBINATION WITH A SELECTIVE DEATH RECEPTOR 5 (DR5) AGONIST, FOR USE IN A METHOD OF TREATING CANCER” (Stichting Het Nederlands Kanker Instituut-Antoni van …, priority 2021, published 2024).

Experiments:
[1] = system: Alisertib induced senescent and proliferating A549, H2030, H358, HCT116, MDA-MB-231 and MCF-7 cells; experiment: Viability of alisertib-induced senescent versus proliferating cancer cell line panel (CellTiter-Blue dose response, Incucyte, colony formation); type: cell-based
Procedure: FIG. 2: (A) Western blot analysis of DR4, DR5, cFLIP in A549 cells treated with different senescence inducers for 1 week. VINC served as loading control. (B) A549 cells were firstly treated with 0.5 μM alisertib for 7 days to induce senescence. Afterwards, the senescent cells were suspended from alisertib, re-seeded in a 96-well plate then switched to 200 ng/ml recombinant Lz-TRAIL. The growth curves were measured by Incucyte cell proliferation assay. (C) Alisertib induced senescent and proliferating A549, H2030, H358, HCT116, MDA-MB-231 and MCF-7 cells were seeded into a 384-well plate and treated with Lz-TRAIL for 120 hrs. Cell viability were measured using CellTiter-Blue to generate dose response curve. (D) Senescence associated beta-galactosidase (SA-β-gal) staining in a cell line panel after treated with 0.5 μM alisertib for one week. (E) Cell viability […] was assessed by colony formation assay in the cell line panel. The cells were firstly treated with 0.5 μM alisertib for 7 days to induce senescence. […]
FIG. 3: (A) Human NF-kB pathway protein array analysis on the senescent A549 cells generated with 0.5 μM alisertib for 7 days. […] (C) Cell viability was assessed by colony formation assay in the A549 cells lentiviral shRNAs against DR4 or DR5. […] Cell viability were measured using CellTiter-Blue to generate dose response curve.

[2] = system: cFLIP (CFLAR); experiment: RNA sequencing of NEO2734 treated cells; type: cell-based; conditions: 0.5 μM NEO2734 for 1 week; PC9, TFK, EGI and Hep1
Procedure: RNA sequencing was performed on PC9, Hep1, EGI and TFK cells treated with 0.5 μM NEO2734 for 1 week. The expression changes of cFLIP and TNFRSF10B (DR5) were plotted.
To investigate the mechanism of this synergy effect from this drug combination, RNA sequencing was performed on NEO2734 treated cells (using four independent cell models PC9, TFK, EGI and Hep1) to identify genes that might be critical for the DR5 signaling pathway. […] This might explain why BRD2 inhibition may enhance the responsiveness of conatumumab.

[3] = system: proliferating and senescent A549 and Hep1 cells; experiment: Colony formation of proliferating and therapy-induced senescent A549 and Hep1 cells with NEO2734 and conatumumab; type: cell-based
Procedure: FIG. 8: Cell viability was assessed by colony formation assay using low doses of NEO2734 and conatumab. (A) Cell viability was assessed by a colony formation assay using low dose 0.25 μM of NEO2734 and 0.125 μg/ml conatumumab on Hep1 cells made senescent by one-week treatment of 0.5 μM alisertib, 1 μM barasertib, 50 nM CFI-400945 or 2 μM Etoposide. (B) Colony formation using low dose 0.25 μM of NEO2734 and 0.125 μg/ml conatumumab on Hep1, 0.25 μM of NEO2734 and 1 μg/ml conatumumab on A549 cells made senescent by one-week treatment of different senescence inducers (0.5 μM PF-06873600, 100 nM doxorubicin, 1 μM TAS-119 or combination of 5 nM trametinib plus 0.5 μM palbociclib.
Cells were treated with 0.5 μM alisertib for 7 days to induce senescence. These cells were seeded into 12 well plates. After 24 hours, the cells were treated with 0.5 μM NEO 2734 and indicated doses of conatumumab for 96 hours. Cells were fixed with 4% paraformaldehyde after 96 hours of drug treatment. The plates were stained with 2 mL 0.5% (w/v) crystal violet in H2O and photographed. Further, colony formation was investigated using 0.25 μM of NEO2734 and 0.125 μg/ml conatumumab on Hep1 cells made senescent by one-week treatment of 0.5 μM alisertib, 1 μM barasertib, 50 nM CFI-400945 or 2 μM Etoposide. Furthermore, colony formation was investigated using 0.25 μM of NEO2734 and 1 μg/ml conatumumab on A549 cells made senescent by one-week treatment of different senescence inducers, namely 0.5 μM PF-06873600, 100 nM doxorubicin or combination of 5 nM trametinib plus 0.5 μM palbociclib. Doxorubicin, PF-06873600, palbociclib and trametinib were purchased from Selleckchem (Houston, TX, USA).

[4] = system: PC9, TFK, EGI and Hep 1 cancer cells, and BJ and Rpe1 primary cells; experiment: Dose-response curves (cell titer blue) for NEO2734 in the presence of conatumumab; type: cell-based, human; conditions: 0.5 microgram/ml conatumumab, 96 hours
Description: FIG. 6: (A) Dose-response curves determined by cell viability using cell titer blue for NEO2734 in the presence of 0.5 microgram/ml conatumumab. Shown are dose response curves for PC9, TFK, EGI and Hep 1 cancer cells, and BJ and Rpe1 primary cells. (B) RNA sequencing results.
PC9 human lung cancer cells, Panc1 human pancreatic cancer cell line of ductal cell origin, Hep3B human epithelial hepatoma cells, H1975 human epithelial lung cancer cells, TFK bile duct cancer cells, EGI bile duct cancer cells, BJ human foreskin fibroblast cells and Rpe1 human retina pigmented epithelial cells were obtained from ATCC.
Cells were seeded into 384 well plates. Drugs were added after 24 hours.
To validate this finding, a BRD2 inhibitor, NEO2734, was used to combine with a DR5 activation antibody (conatumumab) and to test the combination in multiple cancer models, including a pancreatic cancer line of ductal cell origin Panc1, two epithelial hepatoma cell lines Hep3B and Hep1, two bile duct cancer cell lines TFK and EGI, two epithelial cancer lines PC9 and H1975. In addition, two primary cell lines BJ and Rpe1 were used to determine whether this drug combination would be less harmful to healthy cells.

[5] = system: Hep1 liver cancer cells; experiment: Tumor growth of Hep1 xenografts in Balb/c nude mice; type: in vivo; conditions: Hep1 xenograft; 30 mg/kg alisertib oral gavage, 5 μg conatumumab intraperitoneal, week days
Procedure: (§1) FIG. 4: (A) Tumor growth of Hep1 parental cells in the flanks of Balb/c nude mice subcutaneously injected with 1*10^7 cells. When tumors reached approximately 200 mm^3, assigned to either control, 30 mg/kg alisertib (oral gavage), 5 μg conatumumab (intraperitoneal injection) and the combination. The drugs were administrated during week days and suspended during the weekend. (B) Tumor growth of A549 parental cells in the flanks of Balb/c nude mice subcutaneously injected with 5*10^6 cells. When tumors reached approximately 200 mm3, assigned to either control, 30 mg/kg alisertib (oral gavage), 10 μg conatumumab (intraperitoneal injection) and the combination. The drugs were administrated during week days and suspended during the weekend. (C-E) Cell viability was assessed by colony formation assay in the A549 and Hep1 cells. The cells were firstly treated with different senescence inducers for 7 days to induce senescence. Afterwards, the senescent cells were suspended from the senescence inducers then re-seeded in a 12-well plate and switched to conatumumab or Lz-TRAIL treatment for 5 days. Proliferating cells were taken as a control. At the end of assay, cells were fixed, stained, and photographed.
(§2) To test the treatment in vivo, we engrafted Hep1 liver cancer cells and A549 lung cancer cells into immunodeficient nude mice. […]

[6] = system: A549 lung cancer cells; experiment: Tumor growth of A549 xenografts in Balb/c nude mice; type: in vivo; conditions: A549 xenograft; 30 mg/kg alisertib oral gavage, 10 μg conatumumab intraperitoneal, week days
Procedure: as §1, §2

[7] = system: TNFRSF10B (DR5), DR4; experiment: RNA sequencing of a senescent cell line panel, death receptor expression; type: cell-based; conditions: data not shown
Procedure: RNA sequencing was performed on A549 cells treated with 0.5 alisertib μM for 1 week, and followed by gene set enrichment analysis (GSEA) of alisertib treated cells versus untreated control for multiple independent NF-KB signaling gene sets. (B) Real-time PCR analysis of DR4, DR5, cFLIP, TRAIL in A549 cells treated with 0.5 μM alisertib, 100 nM CFI-400945 and 2 μM Etoposide. GAPDH served as control.

[8] = system: senescent cells; experiment: Killing of senescent cells by conatumumab in vitro, time; type: cell-based
[9] = system: senescent A549 and Hep1 cells; experiment: Colony formation of A549 and Hep1 cells made senescent with other senescence inducers; type: cell-based; conditions: A549 and Hep1 made senescent with PLk4 inhibitor, etoposide and barasertib; treatment 5 days
Procedure: as §1

[10] = system: PC9, Hep1 and A549; conditions: 0.5 microgram/ml conatumumab
Procedure: FIG. 7: (A) Cell viability for the BRD2 inhibitor iBET in the presence of 0.5 microgram/ml conatumumab. […] Cells were seeded into 384 well plates. Drugs were added after 24 hours. Cell viability was measured using cell titer blue after 96 hours of drug treatment.

CC1(C)CCC(c2ccc(Cl)cc2)=C(CN2CCN(c3ccc(C(=O)NS(=O)(=O)c4ccc(N[C@H](CCN5CCOCC5)CSc5ccccc5)c(S(=O)(=O)C(F)(F)F)c4)cc3)CC2)C1 [ABT-263]
senolytic effect in cell line panel (colony formation), TRAIL compared with ABT-263 ([1]; alisertib-induced senescent cells, 12-well plate): resistant

Cc1cc(-c2ccc3nc(C4CCOCC4)n(CCOC(F)(F)F)c3c2)cn(C)c1=O [NEO2734, 1,3-dimethyl-5-[2-(oxan-4-yl)-3-[2-(trifluoromethoxy)ethyl]benzimidazol-5-yl]pyridin-2-one]
cFLIP (CFLAR) expression change [2]: highly down-regulated
effect on senolytic effect of DR5 activation (colony formation) ([3]; alisertib-induced senescent and proliferating A549 (1 μg/ml conatumumab) and Hep1 (0.125 μg/ml conatumumab)): improve the senolytic effect of DR5 activation
effect on conatumumab responsiveness in primary cells (cell viability) ([4]; BJ and Rpe1 primary cells): not in primary cells
effect on conatumumab responsiveness in cancer cells (cell viability) ([4]; cancer cells): enhance the conatumumab responsiveness

COc1cc(Nc2ncc3c(n2)-c2ccc(Cl)cc2C(c2c(F)cccc2OC)=NC3)ccc1C(=O)O [alisertib, 4-[[9-chloro-7-(2-fluoro-6-methoxyphenyl)-5H-pyrimido[5,4-d][2]benzazepin-2-yl]amino]-2-methoxybenzoic acid]
tumor growth [5]: limited tumor growth inhibition
tumor growth [6]: limited tumor growth inhibition
DR4 expression in induced senescent cells [7]: not DR4
TNFRSF10B (DR5) expression in induced senescent cells [7]: upregulated

COc1cc([C@@H]2c3cc4c(cc3[C@@H](O[C@@H]3O[C@@H]5CO[C@@H](C)O[C@H]5[C@H](O)[C@H]3O)[C@H]3COC(=O)[C@H]23)OCO4)cc(OC)c1O [etoposide, (5S,5aR,8aR,9R)-5-[[(2R,4aR,6R,7R,8R,8aS)-7,8-dihydroxy-2-methyl-4,4a,6,7,8,8a-hexahydropyrano[3,2-d][1,3]dioxin-6-yl]oxy]-9-(4-hydroxy-3,5-dimethoxyphenyl)-5a,6,8a,9-tetrahydro-5H-[2]benzofuro[6,5-f][1,3]benzodioxol-8-one]
DR4 expression in induced senescent cells [7]: not DR4
TNFRSF10B (DR5) expression in induced senescent cells [7]: upregulated

conatumumab: DR5 agonistic IgG1 antibody; purchased from Creative Biolabs, or generated by expression of SEQ 1 and SEQ 3
tumor growth [5]: limited tumor growth inhibition
tumor growth [6]: limited tumor growth inhibition
dosage that will not lead to a significant impact on alisertib induced senescent cells ([3]; A549, titration): 1 µg/mL
dosage that will not lead to a significant impact on alisertib induced senescent cells ([3]; Hep1, titration): 0.125 µg/mL
time in which senescent cells are killed [8]: 24 h
senolytic effect (colony formation) [9]: strong senolytic effect
killing of senescent versus proliferating cells (cell viability) ([1]; alisertib 0.5 μM 7 days induced senescence, treatment 120 hrs, lung, breast, colon and liver cancer models): selective killing of senescent cells

iBET
effect on conatumumab responsiveness (cell viability) [10]: efficiently enhance the responsiveness of conatumumab
